In patent US9789102B2, “H3 receptor antagonist for use in the treatment of alzheimer's disease” (SANOFI, priority 2012, dated 2017):

Test system: neurofibrillary tangles (NFTs)
Assay: NFTs formation by Gallyas silver staining with quantitative image analysis after six months in food
Assay type: in vivo, THY-Tau22 mice
Excerpt: 2-(Cyclohexylmethyl)-N-{2-[(2S)-1-methylpyrrolidin-2-yl]ethyl}-1,2,3,4-tetrahydroisoquinoline-7-sulfonamide difumarate monohydrate was administrated as a supplement in food at doses of 0.00034%, 0.0034% and 0.034% for six months in THY-Tau22 and wild type mice as follows: • Tg Veh (n=17) • Tg Active Ingredient—0.034% (n=17) • Tg Active Ingredient—0.0034% (n=17) • Tg Active Ingredient—0.00034% (n=17) • WT Veh (n=17) • WT Active Ingredient—0.034% (n=17) • WT Active Ingredient—0.0034% (n=17) • WT Active Ingredient—0.00034% (n=17) • WT groups treated with Active Ingredient are not used in the biochemical and histological studies.
After mice were decapitated, brains were removed and one hemibrain (used for histopathological studies) was immersion-postfixed for seven days at 4° C. with 4% formaldehyde (Carlo Erba/code 415691). The other hemibrain was prepared for biochemical quantitative measurements.
Post-fixed hemibrains were incubated in phosphate-buffered saline (PBS, P 3813-10PAK, Sigma), transferred to a 20% sucrose solution (code 27480.294—Prolabo) for 48 hours at 4° C. to ensure good cryopreservation of tissues during subsequent freezing. For freezing, hemibrains were immersed for one minute in isopentane solution (Ref. No. 24872-323—Prolabo) cooled with dry ice to between −25° C. and −30° C. and then stored at −25° C.
The entire hemibrains were cut with a cryostat (Microm, HM560). Serial sagittal brain tissue sections were collected onto Superfrost plus microscope glass slides (VWR) and then stored at −20° C. (sections of 20 μm of thickness), or placed in PBS-sodium azide 0.1% (S-2002, Sigma) containing wells to avoid any contamination and stored at 4° C. (sections of 30 μm of thickness).
NFTs are a major defining neuropathological feature of tau pathology in AD. They consist of bundles of paired helical filaments and straight filaments and their main constituent is the hyperphosphorylated microtubule-associated protein tau. Gallyas staining is generally used to stain neurofibrillary pathology (Sun A. et al., J. Histochem Cytochem, 2002, 50, 4, pp. 463-472).
A series of 20 μm hemibrain sections (directly mounted on slides) per mice was used for Gallyas staining (Braak and Braak, 1991, Brain Pathology, 1, pp. 213-216). The detailed protocol is as follows:
The following reagents are used: periodic acid (Sigma Ref. No. P 7875); sodium hydroxide (Prolabo Ref. No. 1737-1000); potassium iodide (Merck Ref. No. 1.05043.1000); silver nitrate (Sigma Ref. No. S.8157); 100% ascetic acid (Prolabo Ref. No. 20 104.298); sodium carbonate, anhydrous (Merck Ref. No. 1.06392-0500); ammonium nitrate (Prolabo Ref. No. 21280-293); silicotungstic acid (Sigma Ref. No. T 2786); 40% formaldehyde (Carlo Erba Ref. No. 415661); sodium thiosulfate (Sigma Ref. No. 21724-500 g).
A first stock solution (No. 1) was prepared by dissolving 50 g of anhydrous sodium carbonate in 1000 ml of deionized water. A second stock solution (No. II) was prepared by dissolving 2 g of ammonium nitrate, 2 g of silver nitrate, and 10 g of silicotungstic acid in 1000 ml of deionized water. A third stock solution (No. III) was prepared by dissolving 2 g of ammonium nitrate, 2 g of silver nitrate, 10 g of silicotungstic acid, and 7.3 ml of commercial 37% formaldehyde solution in 1000 ml of deionized water. The stock solutions are stable and can be stored in opaque containers.
Each of the following steps in the method are carried out with stirring. • 1. Pretreatment: The sections on slides were immersed in a solution of 5% periodic acid in water for 5 minutes, and then rinsed twice for 5 minutes in deionized water. • 2. Argentation: The silver iodide solution is freshly prepared by dissolving 4 g of sodium hydroxide in 50 ml of distilled water and adding 10 g of potassium iodide, which is mixed and allowed to dissolve completely. 3.5 ml of a solution of 1% silver nitrate in water is added while stirring. […]

CN1CCC[C@H]1CCNS(=O)(=O)c1ccc2c(c1)CN(CC1CCCCC1)CC2 [2-(cyclohexylmethyl)-N-{2-[(2S)-1-methylpyrrolidin-2-yl]ethyl}-1,2,3,4-tetrahydroisoquinoline-7-sulfonamide difumarate monohydrate]
protective effect against pathological neurons (tangles number), all analyzed brain ROIs (0.00034% in food): no protective effect | NFTs formation in CA1 hippocampal subarea, vs vehicle (0.0034% in food, n=9): statistical significant decrease | NFTs formation in cortex, vs vehicle (0.0034% in food, n=9): statistical significant decrease | decrease in the number of tangles, CA1 hippocampal subarea (0.0034% in food, significant): −25% | decrease of the number of pathological neurons (NFTs, Gallyas), cortex (0.0034% in food, significant): −48% | decrease in NFTs, amygdala (0.0034% in food, statistically non-significant): −19% | NFTs formation in CA1 hippocampal subarea, vs vehicle (0.034% in food, n=9): statistical significant decrease | NFTs formation in amygdala, vs vehicle (0.034% in food, n=9): statistical significant decrease | NFTs formation in cortex, vs vehicle (0.034% in food, n=9): statistical significant decrease | decrease in NFTs, amygdala (0.034% in food, significant): −31% | decrease in the number of tangles, CA1 hippocampal subarea (0.034% in food, significant): −22% | decrease of the number of pathological neurons (NFTs, Gallyas), cortex (0.034% in food, significant): −41%
